Values belong to the compound of their own block, whether it stands above or below them.
What was measured:
Assay type in all cases: biochemical, Agrobacterium tumefaciens NT 1130
1,5-AG dehydrogenase [1] = assay: Substrate specificity of 1,5-AG dehydrogenase (relative activity on various sugars); details: substrate final concentration 5 mM; for Relative activity (substrate specificity): 1,5-AG = 100, nitrotetrazolium blue, pH 8.0, 37° C.
Description: The activity of the 1,5-AG dehydrogenase is measured in the following way. That is, 3.0 ml in total of an enzyme-containing solution comprised of 1.5 ml of 0.2M potassium phosphate buffer (pH 8.0), 0.3 ml of 0.25% by weight nitrotetrazolium blue, 0.3 ml of 2% by weight nonionic surface-active agent, 0.3 ml of an aqueous 50 mM 1,5-AG solution, 0.45 ml of water and 0.15 ml of an enzyme solution is reacted at 37° C., and a change in absorbance (ΔmOD/min) at 540 nm is measured. The molecular extinction coefficient (or molar absorption coefficient) of a formazan dye formed under such conditions is given as 16.7×10^3 and the quantity of the enzyme capable of forming 1 μmol of formazan in one minute is regarded as one unit, where the activity of the 1,5-AG dehydrogenase is determined according to the following expression; [formula] (1) Activity:
Relative activities (substrate specificity) of instances where the 1,5-AG was replaced with various sugar solutions (all having a final concentration of 5 mM) in the above method of measuring the enzymatic activity are shown in Table 2.

1,5-AG dehydrogenase [2] = assay: Km value by Lineweaver-Burk plot; details: read-out: Km value with respect to 1,5-AG
Description: The Km value of the present enzyme with respect to 1,5-AG was determined by the Lineweaver-Burk plot to reveal that it was about 0.5 mM.

1,5-AG dehydrogenase [3] = assay: Electron acceptor utilisation by 1,5-AG dehydrogenase (relative activity); details: 100 mM potassium phosphate buffer pH 8.0
Description: In 100 mM of the potassium phosphate buffer (pH 8.0), various electron acceptors were made present together with the present enzyme, where the activities on the respective electron acceptors were indicated as relative activities, which were as shown in Table 3.

Relative activity (substrate specificity) (1,5-AG dehydrogenase [1]): 0
Compound: OC[C@H]1O[C@H](O[C@H]2[C@H](O)[C@@H](O)C(O)O[C@@H]2CO)[C@H](O)[C@@H](O)[C@@H]1O (mixture of isomers) [Maltose]

Compound: OC[C@H]1OC[C@H](O)[C@@H](O)[C@@H]1O [1,5-AG, 1,5-anhydroglucitol]
Km (1,5-AG dehydrogenase [2]): ~500 µM
Action of the enzyme on the substrate (in words) (1,5-AG dehydrogenase [1]): strongly acted
Relative activity (substrate specificity) (1,5-AG dehydrogenase [1]): 100

Compound: O=C1C(Cl)=CC(=Nc2ccc(O)cc2)C=C1Cl [2,6-Dichlorophenolindophenol]
Relative activity (electron acceptor) (1,5-AG dehydrogenase [3]; acceptor 0.1 mM): 100%

Relative activity (substrate specificity) (1,5-AG dehydrogenase [1]): 2
Compound: O=C(CO)[C@@H](O)[C@H](O)[C@H](O)CO [D-fructose]

Relative activity (substrate specificity) (1,5-AG dehydrogenase [1]): 0
Compound: O=C[C@H](O)[C@@H](O)[C@@H](O)[C@H](O)CO [D-galactose]

Action of the enzyme on the substrate (in words) (1,5-AG dehydrogenase [1]): slightly acted
Relative activity (substrate specificity) (1,5-AG dehydrogenase [1]): 11
Compound: O=C[C@H](O)[C@@H](O)[C@H](O)[C@H](O)CO [D-glucose]

Compound: OC[C@@H](O)[C@@H](O)[C@H](O)[C@@H](O)CO [Glucitol]
Relative activity (substrate specificity) (1,5-AG dehydrogenase [1]): 0

Action of the enzyme on the substrate (in words) (1,5-AG dehydrogenase [1]): weakly acted
Relative activity (substrate specificity) (1,5-AG dehydrogenase [1]): 25
Compound: O=C(CO)[C@@H](O)[C@H](O)[C@@H](O)CO [L-sorbose]

Relative activity (substrate specificity) (1,5-AG dehydrogenase [1]): 0
Compound: O[C@H]1[C@H](O)[C@@H](O)[C@H](O)[C@@H](O)[C@H]1O [Myoinocitol]

Compound: NC(=O)c1ccc[n+]([C@@H]2O[C@H](COP(=O)([O-])OP(=O)(O)OC[C@H]3O[C@@H](n4cnc5c(N)ncnc54)[C@H](O)[C@@H]3O)[C@@H](O)[C@H]2O)c1 [NAD, nicotinamide adenine dinucleotide]
Relative activity (electron acceptor) (1,5-AG dehydrogenase [3]; acceptor 1.0 mM): 0%

Compound: NC(=O)c1ccc[n+]([C@@H]2O[C@H](COP(=O)([O-])OP(=O)(O)OC[C@H]3O[C@@H](n4cnc5c(N)ncnc54)[C@H](OP(=O)(O)O)[C@@H]3O)[C@@H](O)[C@H]2O)c1 [NADP]
Relative activity (electron acceptor) (1,5-AG dehydrogenase [3]; acceptor 1.0 mM): 0%

Compound: COc1cc(-c2ccc(-[n+]3nc(-c4ccccc4)nn3-c3ccc([N+](=O)[O-])cc3)c(OC)c2)ccc1-[n+]1nc(-c2ccccc2)nn1-c1ccc([N+](=O)[O-])cc1 [Nitrotetrazolium blue]
Relative activity (electron acceptor) (1,5-AG dehydrogenase [3]; acceptor 1.0 mM): 53%

Compound: O=O [Oxygen]
Relative activity (electron acceptor) (1,5-AG dehydrogenase [3]; dissolved oxygen): 0%

From patent US5871949A, “Method of quantitative assay for 1,5-anhydroglucitol and reagent for quantitative assay” (Daiichi Pure Chemicals Co., Ltd., priority 1996, dated 1999)
